Reference: US7101849B1 (The University of Queensland, priority 1998, dated 2006)

What was measured:
N-type calcium channel = N-type calcium channel (Rattus norvegicus, UniProt Q02294); type: binding
N-type calcium channels = N-type calcium channels (Homo sapiens, UniProt Q00975); details: cited from earlier work
P/Q-type channels = P/Q-type channels (Homo sapiens, UniProt O00555); details: cited from earlier work
peripheral channels = details: in vivo; cited from earlier work

Chain of N-type calcium channels (Q00975 whole entry, looked up): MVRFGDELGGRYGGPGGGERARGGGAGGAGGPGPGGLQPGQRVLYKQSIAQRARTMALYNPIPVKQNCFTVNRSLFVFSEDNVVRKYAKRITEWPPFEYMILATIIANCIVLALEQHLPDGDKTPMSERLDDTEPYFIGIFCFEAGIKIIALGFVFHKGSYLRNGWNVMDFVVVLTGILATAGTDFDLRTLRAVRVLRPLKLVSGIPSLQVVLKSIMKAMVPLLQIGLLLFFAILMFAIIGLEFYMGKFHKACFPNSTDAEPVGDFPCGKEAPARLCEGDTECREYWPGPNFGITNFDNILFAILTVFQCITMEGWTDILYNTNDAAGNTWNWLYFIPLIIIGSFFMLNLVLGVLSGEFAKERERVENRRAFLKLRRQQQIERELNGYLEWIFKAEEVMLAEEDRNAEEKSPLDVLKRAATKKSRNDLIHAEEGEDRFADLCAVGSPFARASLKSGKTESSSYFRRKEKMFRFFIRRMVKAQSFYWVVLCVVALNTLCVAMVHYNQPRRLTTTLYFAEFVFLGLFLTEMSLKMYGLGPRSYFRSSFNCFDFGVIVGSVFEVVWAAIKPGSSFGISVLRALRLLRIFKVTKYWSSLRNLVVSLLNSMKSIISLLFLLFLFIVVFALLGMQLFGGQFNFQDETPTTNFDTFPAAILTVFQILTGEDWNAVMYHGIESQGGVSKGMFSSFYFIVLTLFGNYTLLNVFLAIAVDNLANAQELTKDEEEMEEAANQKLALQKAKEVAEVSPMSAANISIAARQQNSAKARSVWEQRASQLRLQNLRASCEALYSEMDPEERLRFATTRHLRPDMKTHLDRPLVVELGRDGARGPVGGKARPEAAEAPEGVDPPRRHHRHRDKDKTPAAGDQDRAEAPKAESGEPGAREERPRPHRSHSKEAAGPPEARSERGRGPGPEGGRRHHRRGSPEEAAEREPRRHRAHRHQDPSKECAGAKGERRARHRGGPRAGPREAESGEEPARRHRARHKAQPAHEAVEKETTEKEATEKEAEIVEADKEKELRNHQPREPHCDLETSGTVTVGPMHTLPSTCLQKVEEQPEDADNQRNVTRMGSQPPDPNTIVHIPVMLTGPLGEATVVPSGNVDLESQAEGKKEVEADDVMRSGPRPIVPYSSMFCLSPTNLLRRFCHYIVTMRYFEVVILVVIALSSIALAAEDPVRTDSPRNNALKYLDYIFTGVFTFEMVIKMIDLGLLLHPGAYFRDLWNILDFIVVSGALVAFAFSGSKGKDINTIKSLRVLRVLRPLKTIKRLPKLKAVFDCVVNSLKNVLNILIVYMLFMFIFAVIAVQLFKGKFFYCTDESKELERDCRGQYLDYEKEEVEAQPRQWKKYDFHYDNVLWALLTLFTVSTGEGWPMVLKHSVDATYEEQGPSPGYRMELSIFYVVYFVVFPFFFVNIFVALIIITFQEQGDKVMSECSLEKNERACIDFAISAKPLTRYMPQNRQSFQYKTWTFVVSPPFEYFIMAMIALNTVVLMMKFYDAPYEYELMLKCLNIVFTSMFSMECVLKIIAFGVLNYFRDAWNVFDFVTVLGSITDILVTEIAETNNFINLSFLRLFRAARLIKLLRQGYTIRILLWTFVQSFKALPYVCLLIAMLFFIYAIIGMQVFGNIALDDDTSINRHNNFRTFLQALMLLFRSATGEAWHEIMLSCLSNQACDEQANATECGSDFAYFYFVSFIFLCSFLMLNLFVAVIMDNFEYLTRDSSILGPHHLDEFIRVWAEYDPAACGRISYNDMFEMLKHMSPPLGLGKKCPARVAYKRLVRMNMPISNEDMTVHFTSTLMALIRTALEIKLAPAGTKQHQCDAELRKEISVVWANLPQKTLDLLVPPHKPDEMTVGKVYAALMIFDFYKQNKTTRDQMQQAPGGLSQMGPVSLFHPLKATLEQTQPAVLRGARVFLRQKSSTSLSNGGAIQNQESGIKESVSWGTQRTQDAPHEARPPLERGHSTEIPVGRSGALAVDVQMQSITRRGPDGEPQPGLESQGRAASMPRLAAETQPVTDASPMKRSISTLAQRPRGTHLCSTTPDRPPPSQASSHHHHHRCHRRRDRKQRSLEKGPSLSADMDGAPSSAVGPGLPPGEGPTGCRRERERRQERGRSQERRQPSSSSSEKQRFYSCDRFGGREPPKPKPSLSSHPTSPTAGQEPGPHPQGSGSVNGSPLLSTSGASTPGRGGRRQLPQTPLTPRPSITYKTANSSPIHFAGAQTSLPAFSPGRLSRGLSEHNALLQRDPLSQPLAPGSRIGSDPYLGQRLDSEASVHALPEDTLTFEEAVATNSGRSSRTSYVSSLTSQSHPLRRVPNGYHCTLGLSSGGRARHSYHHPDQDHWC
Chain of N-type calcium channel (Q02294 whole entry, looked up): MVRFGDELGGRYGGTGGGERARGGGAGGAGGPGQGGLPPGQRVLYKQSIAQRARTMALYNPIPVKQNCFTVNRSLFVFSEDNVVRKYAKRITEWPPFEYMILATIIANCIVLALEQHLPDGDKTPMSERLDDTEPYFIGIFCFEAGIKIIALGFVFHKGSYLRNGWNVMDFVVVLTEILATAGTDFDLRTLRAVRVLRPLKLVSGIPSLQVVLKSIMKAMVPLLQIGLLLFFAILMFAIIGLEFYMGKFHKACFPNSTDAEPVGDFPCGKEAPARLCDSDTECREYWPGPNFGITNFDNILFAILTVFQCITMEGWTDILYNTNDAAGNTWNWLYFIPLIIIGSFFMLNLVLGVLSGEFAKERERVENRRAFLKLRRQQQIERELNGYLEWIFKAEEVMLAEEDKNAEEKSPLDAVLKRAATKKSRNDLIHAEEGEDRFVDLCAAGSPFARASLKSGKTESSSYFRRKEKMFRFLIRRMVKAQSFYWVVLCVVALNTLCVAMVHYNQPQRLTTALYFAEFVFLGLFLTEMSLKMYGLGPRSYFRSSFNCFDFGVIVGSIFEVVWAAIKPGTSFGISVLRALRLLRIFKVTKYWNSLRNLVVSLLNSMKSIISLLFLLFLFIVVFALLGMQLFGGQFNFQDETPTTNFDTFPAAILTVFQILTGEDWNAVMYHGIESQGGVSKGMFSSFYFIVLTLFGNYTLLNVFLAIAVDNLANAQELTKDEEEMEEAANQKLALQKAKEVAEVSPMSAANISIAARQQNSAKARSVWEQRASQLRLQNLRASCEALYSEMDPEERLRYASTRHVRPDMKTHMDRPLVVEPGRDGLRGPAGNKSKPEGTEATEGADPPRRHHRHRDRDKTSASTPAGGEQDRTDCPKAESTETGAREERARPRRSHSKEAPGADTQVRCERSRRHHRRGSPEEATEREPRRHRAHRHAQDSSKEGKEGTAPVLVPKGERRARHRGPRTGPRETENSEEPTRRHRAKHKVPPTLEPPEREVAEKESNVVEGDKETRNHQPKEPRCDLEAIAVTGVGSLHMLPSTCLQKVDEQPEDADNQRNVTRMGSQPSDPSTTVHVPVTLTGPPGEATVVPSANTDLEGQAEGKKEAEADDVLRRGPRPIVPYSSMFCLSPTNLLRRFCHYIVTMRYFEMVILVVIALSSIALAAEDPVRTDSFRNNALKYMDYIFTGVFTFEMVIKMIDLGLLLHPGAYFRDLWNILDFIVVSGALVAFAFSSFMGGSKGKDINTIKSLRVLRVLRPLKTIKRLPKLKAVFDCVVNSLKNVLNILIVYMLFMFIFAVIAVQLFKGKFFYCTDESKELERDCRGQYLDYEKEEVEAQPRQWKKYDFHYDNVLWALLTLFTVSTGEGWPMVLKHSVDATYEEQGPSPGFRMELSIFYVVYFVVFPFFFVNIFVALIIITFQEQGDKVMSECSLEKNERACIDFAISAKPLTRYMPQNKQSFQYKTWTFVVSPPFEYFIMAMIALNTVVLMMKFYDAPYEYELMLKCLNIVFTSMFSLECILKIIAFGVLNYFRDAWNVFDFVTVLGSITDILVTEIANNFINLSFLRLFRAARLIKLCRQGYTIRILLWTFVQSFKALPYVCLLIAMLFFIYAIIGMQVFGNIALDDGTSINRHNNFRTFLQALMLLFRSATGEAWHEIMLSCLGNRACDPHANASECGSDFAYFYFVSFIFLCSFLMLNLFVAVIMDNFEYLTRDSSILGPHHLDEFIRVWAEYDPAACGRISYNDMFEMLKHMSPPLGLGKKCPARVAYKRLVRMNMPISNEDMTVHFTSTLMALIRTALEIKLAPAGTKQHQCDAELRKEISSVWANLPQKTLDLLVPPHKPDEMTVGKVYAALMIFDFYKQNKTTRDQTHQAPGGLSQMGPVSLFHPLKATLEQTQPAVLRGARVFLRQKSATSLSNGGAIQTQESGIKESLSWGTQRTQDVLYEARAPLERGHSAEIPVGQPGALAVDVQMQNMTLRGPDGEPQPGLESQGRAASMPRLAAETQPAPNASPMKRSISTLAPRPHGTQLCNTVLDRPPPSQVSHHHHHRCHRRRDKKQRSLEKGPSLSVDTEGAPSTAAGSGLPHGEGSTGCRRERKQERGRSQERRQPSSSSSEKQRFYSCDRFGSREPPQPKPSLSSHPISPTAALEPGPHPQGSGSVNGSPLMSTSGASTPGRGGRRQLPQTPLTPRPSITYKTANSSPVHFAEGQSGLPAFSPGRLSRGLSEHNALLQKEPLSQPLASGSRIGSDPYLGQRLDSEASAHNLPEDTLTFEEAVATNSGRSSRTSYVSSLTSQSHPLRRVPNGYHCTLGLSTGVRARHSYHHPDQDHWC

| Compound | potency for N-type calcium channel in receptor binding assays (N-type calcium channel) | selectivity for N-type calcium channel over P/Q-type calcium channel in receptor binding assays (N-type calcium channel) | affinity / selectivity for N-type calcium channels (N-type calcium channels) | further results |
| --- | --- | --- | --- | --- |
| CKSKGAKCSKLMYDCCSGSCSGTVGRC [CVID] | high potency | high selectivity |  |  |
| CKSKGAKCSRLMYDCCSGSCSGTVGRC [R^10-CVID] | high potency | high selectivity |  |  |
| CKSOGSSCSOTSYNCCRSCNOYTKRCY [GVIA] |  |  | high level of selectivity | antagonism of N-type calcium channels (N-type calcium channels): potent antagonist; reversibility of binding to N-type calcium channels (N-type calcium channels): irreversible |
| CKGKOAPCRKTMYDCCSGSCGRRGKC [MVIIC] |  |  | low affinity | binding to P/Q-type channels (P/Q-type channels): bind strongly |
| CSCC[C@@H]1NC(=O)[C@H](CC(C)C)NC(=O)[C@H](CCCNC(=N)N)NC(=O)[C@H](CO)NC(=O)[C@@H]2CSSC[C@@H]3NC(=O)[C@H](CO)NC(=O)CNC(=O)[C@H]([C@@H](C)O)NC(=O)[C@H](CSSC[C@H](N)C(=O)N[C@@H](CCCCN)C(=O)NCC(=O)N[C@@H](CCCCN)C(=O)NCC(=O)N[C@@H](C)C(=O)N[C@@H](CCCCN)C(=O)N2)NC(=O)[C@H](CSSC[C@@H](C(N)=O)NC(=O)[C@H](CCCCN)NC(=O)CNC(=O)[C@H](CO)NC(=O)[C@H](CCCNC(=N)N)NC3=O)NC(=O)[C@H](CC(=O)O)NC(=O)[C@H](Cc2ccc(O)cc2)NC1=O [SNX-111] |  |  |  | hypotension (peripheral channels): cause hypotension |
